PMC5179006, “Procarcinogens – Determination and Evaluation by Yeast-Based Biosensor Transformed with Plasmids Incorporating RAD54 Reporter Construct and Cytochrome P450 Genes” (PLoS ONE, 2016)
Where two headings read alike, the source gives them in different places.

Key:
recombinant human CYP3A4 = conditions: 3A4+ clone microsomes; nonlinear regression
recombinant human CYP2D6 = recombinant human CYP2D6 (Homo sapiens, UniProt P10635); assay: CYP activity assay, deethylation of fluorogenic substrate by microsomes of 2D6+ clone; conditions: 2D6+ clone microsomes, nonlinear regression
CYP2B6 [1] = target: T1, CYP2B6 (Homo sapiens, UniProt P20813); conditions: 2B6+ clone microsomes; nonlinear regression
CYP3A4 = assay: in vitro; conditions: human, pH 7.4, Km, 3A4+ clone microsomes; nonlinear regression; substrate 1–100 μM, 37°C
CYP2B6 [2] = target: T1, CYP2B6; assay: in vitro; conditions: pH 7.4, Km, 2B6+ clone microsomes, nonlinear regression, substrate 1–100 μM, 37°C
[3] = system: CYP2B6 + RAD54 system (CPR-CYP2B6 and RAD54-GFP constructs)
[4] = system: CYP2D6 + RAD54 system (CPR-CYP2D6 and RAD54-GFP constructs)
[5] = system: NCs system (control pESC-URA and pUMGP5 plasmids)
[6] = system: CYP3A4 + RAD54 system (CPR-CYP3A4 and RAD54-GFP constructs)
[7] = system: RAD54 system (only the RAD54-GFP construct)
in vitro = conditions: Saccharomyces cerevisiae
RAD54-GFP integrant = conditions: concentration 1.02–33 μg/mL; ref Walsh et al. 2005 [30]; cited from earlier work
[8] = system: RAD54-GFP integrant + CYP3A4; conditions: cited from earlier work
[9] = system: RAD54-GFP integrant + CYP1A2; conditions: cited from earlier work
[10] = substrate: CCOc1ccc2cc(C#N)c(=O)oc2c1; assay: cells, lysate or membranes named; conditions: other: 2D6+ clone microsomes, nonlinear regression, substrate 1–100 μM, 37°C
[11] = concentration 1.02–33 μg/mL, ref Walsh et al. 2005 [30]

T1 sequence (P20813 whole entry): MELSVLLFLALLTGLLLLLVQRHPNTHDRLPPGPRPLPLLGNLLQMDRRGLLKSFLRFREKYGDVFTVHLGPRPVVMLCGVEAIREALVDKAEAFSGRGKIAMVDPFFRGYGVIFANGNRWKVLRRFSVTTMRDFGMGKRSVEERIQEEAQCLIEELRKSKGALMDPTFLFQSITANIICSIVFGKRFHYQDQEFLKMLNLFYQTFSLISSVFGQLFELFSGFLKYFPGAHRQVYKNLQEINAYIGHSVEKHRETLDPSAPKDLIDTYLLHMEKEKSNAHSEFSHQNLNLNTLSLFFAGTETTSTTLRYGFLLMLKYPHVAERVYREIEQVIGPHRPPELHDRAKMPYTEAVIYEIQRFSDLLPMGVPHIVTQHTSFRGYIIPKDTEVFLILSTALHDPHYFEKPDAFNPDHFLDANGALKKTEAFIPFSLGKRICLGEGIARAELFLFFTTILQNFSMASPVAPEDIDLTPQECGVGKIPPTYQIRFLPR

CCOc1ccc2cc(C#N)c(=O)oc2c1 [7-ethoxycoumarin-3-carbonitrile]
Vmax (recombinant human CYP3A4): 3.2 pmol/pmol CYP/min | Vmax (recombinant human CYP2D6): ~ 4.7 pmol/pmol CYP/min | Km (recombinant human CYP2D6; substrate 1–100 μM, 37°C): ~2100 nM | Vmax (CYP2B6 [1]): 2.7 pmol/pmol CYP/min | Km (CYP3A4): 3.5 µM | Km (CYP2B6 [2]): 3.7 µM

c1ccc2c(c1)cc1ccc3cccc4ccc2c1c34 [Benzo(a)pyrene, benzo(a)pyrene]
GFP fold induction signal, CYP2B6 + RAD54 ([3]; 10 μM, 16 h at 30°C): – (Negative (≤1.3 GFP fold induction),–) | GFP fold induction signal, CYP2B6 + RAD54 ([3]; 20 μM, 16 h at 30°C): – (Negative (≤1.3 GFP fold induction),–) | GFP fold induction signal, CYP2B6 + RAD54 ([3]; 40 μM, 16 h at 30°C): – (Negative (≤1.3 GFP fold induction),–) | GFP fold induction signal, CYP2D6 + RAD54 ([4]; 10 μM, 16 h at 30°C): – (Negative (≤1.3 GFP fold induction),–) | GFP fold induction signal, CYP2D6 + RAD54 ([4]; 20 μM, 16 h at 30°C): – (Negative (≤1.3 GFP fold induction),–) | GFP fold induction signal, CYP2D6 + RAD54 ([4]; 40 μM, 16 h at 30°C): – (Negative (≤1.3 GFP fold induction),–) | GFP fold induction signal, NCs ([5]; 10 μM, 16 h at 30°C): – (Negative (≤1.3 GFP fold induction),–) | GFP fold induction signal, NCs ([5]; 20 μM, 16 h at 30°C): – (Negative (≤1.3 GFP fold induction),–) | GFP fold induction signal, NCs ([5]; 40 μM, 16 h at 30°C): – (Negative (≤1.3 GFP fold induction),–) | Genotoxicity result, present study, CYP3A4 + RAD54 [6]: + | GFP fold induction signal, CYP3A4 + RAD54 ([6]; 10 μM, 16 h at 30°C): + (positive (>1.3 GFP fold induction), + (1.3, 2]) | GFP fold induction signal, CYP3A4 + RAD54 ([6]; 20 μM, 16 h at 30°C): + (positive (>1.3 GFP fold induction), + (1.3, 2]) | GFP fold induction signal, CYP3A4 + RAD54 ([6]; 40 μM, 16 h at 30°C): ++ (++ (2, 3]) | GFP fold induction signal, RAD54 ([7]; 10 μM, 16 h at 30°C): – (Negative (≤1.3 GFP fold induction),–) | GFP fold induction signal, RAD54 ([7]; 20 μM, 16 h at 30°C): – (Negative (≤1.3 GFP fold induction),–) | GFP fold induction signal, RAD54 ([7]; 40 μM, 16 h at 30°C): – (Negative (≤1.3 GFP fold induction),–) | fold induction (in vitro): ≤ 1.3

COS(C)(=O)=O [Methyl methanesulfonate, methyl methanesulfonate]
GFP fold induction signal, CYP2B6 + RAD54 ([3]; 25 μM, 16 h at 30°C): + (positive (>1.3 GFP fold induction), + (1.3, 2]) | GFP fold induction signal, CYP2B6 + RAD54 ([3]; 50 μM, 16 h at 30°C): +++ (+++ (3, 4]) | GFP fold induction signal, CYP2B6 + RAD54 ([3]; 100 μM, 16 h at 30°C): ++++ (++++ (4, ∞]) | Genotoxicity result, present study, CYP2B6 + RAD54 ([3]; concentration 2.75–11.01 μg/mL): + | Genotoxicity result, published report, RAD54-GFP integrant (RAD54-GFP integrant): + | GFP fold induction signal, CYP2D6 + RAD54 ([4]; 25 μM, 16 h at 30°C): + (positive (>1.3 GFP fold induction), + (1.3, 2]) | GFP fold induction signal, CYP2D6 + RAD54 ([4]; 50 μM, 16 h at 30°C): +++ (+++ (3, 4]) | GFP fold induction signal, CYP2D6 + RAD54 ([4]; 100 μM, 16 h at 30°C): ++++ (++++ (4, ∞]) | Genotoxicity result, present study, CYP2D6 + RAD54 ([4]; concentration 2.75–11.01 μg/mL): + | GFP fold induction signal, NCs ([5]; 25 μM, 16 h at 30°C): – (Negative (≤1.3 GFP fold induction),–) | GFP fold induction signal, NCs ([5]; 50 μM, 16 h at 30°C): – (Negative (≤1.3 GFP fold induction),–) | GFP fold induction signal, NCs ([5]; 100 μM, 16 h at 30°C): – (Negative (≤1.3 GFP fold induction),–) | GFP fold induction signal, CYP3A4 + RAD54 ([6]; 25 μM, 16 h at 30°C): + (positive (>1.3 GFP fold induction), + (1.3, 2]) | GFP fold induction signal, CYP3A4 + RAD54 ([6]; 50 μM, 16 h at 30°C): +++ (+++ (3, 4]) | GFP fold induction signal, CYP3A4 + RAD54 ([6]; 100 μM, 16 h at 30°C): ++++ (++++ (4, ∞]) | Genotoxicity result, present study, CYP3A4 + RAD54 ([6]; concentration 2.75–11.01 μg/mL): + | GFP fold induction signal, RAD54 ([7]; 25 μM, 16 h at 30°C): + (positive (>1.3 GFP fold induction), + (1.3, 2]) | GFP fold induction signal, RAD54 ([7]; 50 μM, 16 h at 30°C): +++ (+++ (3, 4]) | GFP fold induction signal, RAD54 ([7]; 100 μM, 16 h at 30°C): ++++ (++++ (4, ∞]) | Genotoxicity result, present study, RAD54 ([7]; concentration 2.75–11.01 μg/mL): + | Genotoxicity result, published report, RAD54-GFP integrant + CYP3A4 [8, 11]: + | Genotoxicity result, published report, RAD54-GFP integrant + CYP1A2 [9, 11]: +

aflatoxin B1
Genotoxicity result, present study, CYP2B6 + RAD54 [3]: + | GFP fold induction signal, CYP2B6 + RAD54 ([3]; 0.1 µM): – (key: Negative (≤1.3 GFP fold induction),–; positive (>1.3 GFP fold induction), + (1.3, 2]; ++ (2, 3]; +++ (3, 4]; ++++ (4, ∞]) | GFP fold induction signal, CYP2B6 + RAD54 ([3]; 0.2 µM): – (key: Negative (≤1.3 GFP fold induction),–; positive (>1.3 GFP fold induction), + (1.3, 2]; ++ (2, 3]; +++ (3, 4]; ++++ (4, ∞]) | GFP fold induction signal, CYP2B6 + RAD54 ([3]; 0.4 µM): + (key: Negative (≤1.3 GFP fold induction),–; positive (>1.3 GFP fold induction), + (1.3, 2]; ++ (2, 3]; +++ (3, 4]; ++++ (4, ∞]) | GFP fold induction signal, CYP2D6 + RAD54 ([4]; 0.1 µM): – (key: Negative (≤1.3 GFP fold induction),–; positive (>1.3 GFP fold induction), + (1.3, 2]; ++ (2, 3]; +++ (3, 4]; ++++ (4, ∞]) | GFP fold induction signal, CYP2D6 + RAD54 ([4]; 0.2 µM): – (key: Negative (≤1.3 GFP fold induction),–; positive (>1.3 GFP fold induction), + (1.3, 2]; ++ (2, 3]; +++ (3, 4]; ++++ (4, ∞]) | GFP fold induction signal, CYP2D6 + RAD54 ([4]; 0.4 µM): – (key: Negative (≤1.3 GFP fold induction),–; positive (>1.3 GFP fold induction), + (1.3, 2]; ++ (2, 3]; +++ (3, 4]; ++++ (4, ∞]) | GFP fold induction signal, NCs ([5]; 0.1 µM): – (key: Negative (≤1.3 GFP fold induction),–; positive (>1.3 GFP fold induction), + (1.3, 2]; ++ (2, 3]; +++ (3, 4]; ++++ (4, ∞]) | GFP fold induction signal, NCs ([5]; 0.2 µM): – (key: Negative (≤1.3 GFP fold induction),–; positive (>1.3 GFP fold induction), + (1.3, 2]; ++ (2, 3]; +++ (3, 4]; ++++ (4, ∞]) | GFP fold induction signal, NCs ([5]; 0.4 µM): – (key: Negative (≤1.3 GFP fold induction),–; positive (>1.3 GFP fold induction), + (1.3, 2]; ++ (2, 3]; +++ (3, 4]; ++++ (4, ∞]) | Genotoxicity result, present study, CYP3A4 + RAD54 [6]: + | GFP fold induction signal, CYP3A4 + RAD54 ([6]; 0.1 µM): + (key: Negative (≤1.3 GFP fold induction),–; positive (>1.3 GFP fold induction), + (1.3, 2]; ++ (2, 3]; +++ (3, 4]; ++++ (4, ∞]) | GFP fold induction signal, CYP3A4 + RAD54 ([6]; 0.2 µM): ++ (key: Negative (≤1.3 GFP fold induction),–; positive (>1.3 GFP fold induction), + (1.3, 2]; ++ (2, 3]; +++ (3, 4]; ++++ (4, ∞]) | GFP fold induction signal, CYP3A4 + RAD54 ([6]; 0.4 µM): ++ (key: Negative (≤1.3 GFP fold induction),–; positive (>1.3 GFP fold induction), + (1.3, 2]; ++ (2, 3]; +++ (3, 4]; ++++ (4, ∞]) | GFP fold induction [7]: ≤ 1.3 | GFP fold induction signal, RAD54 ([7]; 0.1 µM): – (key: Negative (≤1.3 GFP fold induction),–; positive (>1.3 GFP fold induction), + (1.3, 2]; ++ (2, 3]; +++ (3, 4]; ++++ (4, ∞]) | GFP fold induction signal, RAD54 ([7]; 0.2 µM): – (key: Negative (≤1.3 GFP fold induction),–; positive (>1.3 GFP fold induction), + (1.3, 2]; ++ (2, 3]; +++ (3, 4]; ++++ (4, ∞]) | GFP fold induction signal, RAD54 ([7]; 0.4 µM): – (key: Negative (≤1.3 GFP fold induction),–; positive (>1.3 GFP fold induction), + (1.3, 2]; ++ (2, 3]; +++ (3, 4]; ++++ (4, ∞]) | Genotoxicity result, published report, RAD54-GFP integrant + CYP1A2 [9]: +

N-nitrosodimethylamine
Genotoxicity result, present study, CYP2B6 + RAD54 [3]: + | GFP fold induction signal, CYP2D6 + RAD54 [4]: – (key: Negative (≤1.3 GFP fold induction),–; positive (>1.3 GFP fold induction), + (1.3, 2]; ++ (2, 3]; +++ (3, 4]; ++++ (4, ∞]) | GFP fold induction signal, NCs [5]: – (key: Negative (≤1.3 GFP fold induction),–; positive (>1.3 GFP fold induction), + (1.3, 2]; ++ (2, 3]; +++ (3, 4]; ++++ (4, ∞]) | GFP fold induction signal, CYP3A4 + RAD54 [6]: – (key: Negative (≤1.3 GFP fold induction),–; positive (>1.3 GFP fold induction), + (1.3, 2]; ++ (2, 3]; +++ (3, 4]; ++++ (4, ∞]) | GFP fold induction [7]: ≤ 1.3 | GFP fold induction signal, RAD54 [7]: – (key: Negative (≤1.3 GFP fold induction),–; positive (>1.3 GFP fold induction), + (1.3, 2]; ++ (2, 3]; +++ (3, 4]; ++++ (4, ∞]) | Genotoxicity result, published report, RAD54-GFP integrant + CYP3A4 [8]: +

B1: recombinant human CYP2D6 (Homo sapiens) (protein)
chain: MGLEALVPLAVIVAIFLLLVDLMHRRQRWAARYPPGPLPLPGLGNLLHVDFQNTPYCFDQLRRRFGDVFSLQLAWTPVVVLNGLAAVREALVTHGEDTADRPPVPITQILGFGPRSQGVFLARYGPAWREQRRFSVSTLRNLGLGKKSLEQWVTEEAACLCAAFANHSGRPFRPNGLLDKAVSNVIASLTCGRRFEYDDPRFLRLLDLAQEGLKEESGFLREVLNAVPVLLHIPALAGKVLRFQKAFLTQLDELLTEHRMTWDPAQPPRDLTEAFLAEMEKAKGNPESSFNDENLRIVVADLFSAGMVTTSTTLAWGLLLMILHPDVQRRVQQEIDDVIGQVRRPEMGDQAHMPYTTAVIHEVQRFGDIVPLGVTHMTSRDIEVQGFRIPKGTTLITNLSSVLKDEAVWEKPFRFHPEHFLDAQGHFVKPEAFLPFSAGRRACLGEPLARMELFLFFTSLLQHFSFSVPTGQPRPSHHGVFAFLVSPSPYELCAVPR
Km [10]: 2.1 µM | kcat [10]: 4.7 pmol/pmol CYP/min | kcat/Km [10]: 2.2 μL/pmol CYP/min
